Measurements from US7108865B2, “Controlled-release dosage forms of azithromycin” (Pfizer Inc, priority 1994, dated 2006).

Assay: Visual Analogue Scale gastrointestinal side effects after 2 hr intravenous infusion (Example 3)
Type: in vivo, human
Set-up: key to Mean Cumulative Score (Visual Analogue Scale), abdominal pain / Mean Cumulative Score (Visual Analogue Scale), nausea / Mean Cumulative Score (Visual Analogue Scale), regurgitation / Mean Cumulative Score (Visual Analogue Scale), abdominal cramping: sum over 240 h of 0–10 VAS severity scores, averaged per subject
Conditions: not corrected for placebo effects; for Incidence of Visual-Analogue-Scale score >1, abdominal cramping / Incidence of Visual-Analogue-Scale score >1, abdominal pain / Incidence of Visual-Analogue-Scale score >1, nausea / Incidence of Visual-Analogue-Scale score >1, regurgitation / Incidence of Visual-Analogue-Scale score >4, abdominal cramping / Incidence of Visual-Analogue-Scale score >4, abdominal pain / Incidence of Visual-Analogue-Scale score >4, nausea / Incidence of Visual-Analogue-Scale score >4, regurgitation: any time during 240 hour post-dose; for Mean Cumulative Score (Visual Analogue Scale), abdominal cramping / Mean Cumulative Score (Visual Analogue Scale), abdominal pain / Mean Cumulative Score (Visual Analogue Scale), nausea / Mean Cumulative Score (Visual Analogue Scale), regurgitation: entire 240 hour post-dose period
Method: Healthy male subjects were divided into four groups. Group A received a 2 hr intravenous infusion of a placebo solution (0 g azithromycin). Group B received a 2 hr intravenous infusion of a 1 g dose of azithromycin. Group C received a 2 hr intravenous infusion of a 2 g dose of azithromycin. Group D received a 2 hr intravenous infusion of a 4 g dose of azithromycin. […] All subjects were dosed after an overnight fast.
Prior to dosing and each blood sampling time, each subject filled out a questionnaire, which consisted of a series of “Visual Analogue Scales” in which the subject was required to rate, on a scale of 0–10, the severity of certain potential side effects. The subjects were instructed that “0” indicated an absent effect and “10” indicated the worst possible effect. The subjects were instructed to interpolate between 0 and 10 for moderate side effects.
Analysis of side effect visual-analogue-scale data was carried out in two formats. In the first format (Table VIII), the analysis concentrated on the general incidence of side effects of a particular type. For each side effect type (e.g., abdominal pain), Table VIII reports the number of subjects who reported a score >1 at any time during the 240 hr post-dosing, and the number of subjects who reported a score >4 at any time during the 240 hr post-dosing. This analysis assumes that all […] represent a real side effect occurrence, however mild or severe. A score >4 is presumed to reflect a moderate-to-severe side effect occurrence.
In the second format (Table IX), the analysis reflects the general severity and duration of side effects. For a particular side effect (e.g., Abdominal Pain) in a particular subject, all visual-analogue-scale scores (over the 240 hr post-dose period) were summed to give a “cumulative score” over the entire time period of evaluation. “Cumulative scores” for all members of a treatment group were summed, and divided by the number of subjects in the group, to a give a Mean Cumulative Score. […] Table IX presents Mean Cumulative Scores for abdominal pain, nausea, regurgitation, and abdominal cramping.

CC[C@H]1OC(=O)[C@H](C)[C@@H](O[C@H]2C[C@@](C)(OC)[C@@H](O)[C@H](C)O2)[C@H](C)[C@@H](O[C@@H]2O[C@H](C)C[C@H](N(C)C)[C@H]2O)[C@](C)(O)C[C@@H](C)CN(C)[C@H](C)[C@@H](O)[C@]1(C)O [azithromycin, 9a-aza-9a-methyl-9-deoxo-9a-homoerythromycin A]
Incidence of Visual-Analogue-Scale score >1, abdominal cramping (1 g IV over 2 hr): 0/5 | Incidence of Visual-Analogue-Scale score >1, abdominal pain (1 g IV over 2 hr): 1/5 | Incidence of Visual-Analogue-Scale score >1, nausea (1 g IV over 2 hr): 0/5 | Incidence of Visual-Analogue-Scale score >1, regurgitation (1 g IV over 2 hr): 0/5 | Incidence of Visual-Analogue-Scale score >4, abdominal cramping (1 g IV over 2 hr): 0/5 | Incidence of Visual-Analogue-Scale score >4, abdominal pain (1 g IV over 2 hr): 0/5 | Incidence of Visual-Analogue-Scale score >4, nausea (1 g IV over 2 hr): 0/5 | Incidence of Visual-Analogue-Scale score >4, regurgitation (1 g IV over 2 hr): 0/5 | Mean Cumulative Score (Visual Analogue Scale), abdominal cramping (1.0 g IV, n 6): 0.5 | Mean Cumulative Score (Visual Analogue Scale), abdominal pain (1.0 g IV, n 6): 1.5 | Mean Cumulative Score (Visual Analogue Scale), nausea (1.0 g IV, n 6): 0 | Mean Cumulative Score (Visual Analogue Scale), regurgitation (1.0 g IV, n 6): 0 | Incidence of Visual-Analogue-Scale score >1, abdominal cramping (2 g IV over 2 hr): 1/6 | Incidence of Visual-Analogue-Scale score >1, abdominal pain (2 g IV over 2 hr): 2/6 | Incidence of Visual-Analogue-Scale score >1, nausea (2 g IV over 2 hr): 4/6 | Incidence of Visual-Analogue-Scale score >1, regurgitation (2 g IV over 2 hr): 1/6 | Incidence of Visual-Analogue-Scale score >4, abdominal cramping (2 g IV over 2 hr): 1/6 | Incidence of Visual-Analogue-Scale score >4, abdominal pain (2 g IV over 2 hr): 1/6 | Incidence of Visual-Analogue-Scale score >4, nausea (2 g IV over 2 hr): 2/6 | Incidence of Visual-Analogue-Scale score >4, regurgitation (2 g IV over 2 hr): 0/6 | Mean Cumulative Score (Visual Analogue Scale), abdominal cramping (2.0 g IV, n 6): 3.8 | Mean Cumulative Score (Visual Analogue Scale), abdominal pain (2.0 g IV, n 6): 5.7 | Mean Cumulative Score (Visual Analogue Scale), nausea (2.0 g IV, n 6): 13.2 | Mean Cumulative Score (Visual Analogue Scale), regurgitation (2.0 g IV, n 6): 0.5 | Incidence of Visual-Analogue-Scale score >1, abdominal cramping (4 g IV over 2 hr): 4/5 | Incidence of Visual-Analogue-Scale score >1, abdominal pain (4 g IV over 2 hr): 4/5 | Incidence of Visual-Analogue-Scale score >1, nausea (4 g IV over 2 hr): 3/5 | Incidence of Visual-Analogue-Scale score >1, regurgitation (4 g IV over 2 hr): 1/5 | Incidence of Visual-Analogue-Scale score >4, abdominal cramping (4 g IV over 2 hr): 2/5 | Incidence of Visual-Analogue-Scale score >4, abdominal pain (4 g IV over 2 hr): 0/5 | Incidence of Visual-Analogue-Scale score >4, nausea (4 g IV over 2 hr): 2/5 | Incidence of Visual-Analogue-Scale score >4, regurgitation (4 g IV over 2 hr): 1/5 | Mean Cumulative Score (Visual Analogue Scale), abdominal cramping (4.0 g IV, n 5): 11.8 | Mean Cumulative Score (Visual Analogue Scale), abdominal pain (4.0 g IV, n 5): 12.8 | Mean Cumulative Score (Visual Analogue Scale), nausea (4.0 g IV, n 5): 10.6 | Mean Cumulative Score (Visual Analogue Scale), regurgitation (4.0 g IV, n 5): 3.8
